T/C data for 22 molecules are collected here from PubChem BioAssay AID256 (DTP/NCI, 2004).

For this assay, the system named is CD2F1 mice, L1210 leukemia ip, survival T/C. As to the kind of experiment: NCI In Vivo Anticancer Drug Screen. Data for tumor model L1210 Leukemia (intraperitoneal) in CD2F1 (CDF1) mice. The settings on record: higher = longer survival. In short, it runs like this: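 Vehicle-treated tumor-bearing mice served as controls (C) for compound-treated mice (T). Reported figure is T divided by C.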

[1] abbreviates: endpoint: mean survival time, dose: 100.0 mg/kg/injection, schedule: Q04DX003 (ip), vehicle: saline with Tween-80.
The mark [2] stands for this setting: endpoint: mean survival time, dose: 200.0 mg/kg/injection, schedule: Q04DX003 (ip), vehicle: saline with Tween-80.
[3] abbreviates: endpoint: mean survival time, dose: 400.0 mg/kg/injection, schedule: Q04DX003 (ip), vehicle: saline with Tween-80.
Setting [4] is: endpoint: mean survival time, dose: 100.0 mg/kg/injection, schedule: Q01DX009 (ip), vehicle: saline with Tween-80.
The mark [5] stands for this setting: endpoint: mean survival time, dose: 100.0 mg/kg/injection, schedule: Q04DX002 (ip), vehicle: saline with Tween-80.
The mark [6] stands for this setting: endpoint: mean survival time, dose: 200.0 mg/kg/injection, schedule: Q04DX002 (ip), vehicle: saline with Tween-80.
[7] abbreviates: endpoint: mean survival time, dose: 400.0 mg/kg/injection, schedule: Q04DX002 (ip), vehicle: saline with Tween-80.
The mark [8] stands for this setting: endpoint: mean survival time, dose: 6.25 mg/kg/injection, schedule: Q01DX009 (ip), vehicle: saline with Tween-80.
The mark [9] stands for this setting: endpoint: mean survival time, dose: 12.5 mg/kg/injection, schedule: Q01DX009 (ip), vehicle: saline with Tween-80.
The mark [10] stands for this setting: endpoint: mean survival time, dose: 25.0 mg/kg/injection, schedule: Q01DX009 (ip), vehicle: saline with Tween-80.
The mark [11] stands for this setting: endpoint: mean survival time, dose: 100.0 mg/kg/injection, schedule: Q01DX001 (ip), vehicle: saline.
[12] abbreviates: endpoint: mean survival time, dose: 200.0 mg/kg/injection, schedule: Q01DX001 (ip), vehicle: saline.
The mark [13] stands for this setting: endpoint: mean survival time, dose: 400.0 mg/kg/injection, schedule: Q01DX001 (ip), vehicle: saline.

SMILES strings stand for the structures. Inconclusive results and toxic doses are left out.

For the molecule `[NH-]S(=O)(=O)O.[NH-]S(=O)(=O)O.[NH2-].[NH2-].[Pt+4]`, the T/C is, setting by setting: (endpoint: mean survival time, dose: 10.0 mg/kg/injection, schedule: Q04DX003 (ip), vehicle: saline with Tween-80) 95 % of control; (endpoint: mean survival time, dose: 20.0 mg/kg/injection, schedule: Q04DX003 (ip), vehicle: saline with Tween-80) 97 % of control; (endpoint: mean survival time, dose: 40.0 mg/kg/injection, schedule: Q04DX003 (ip), vehicle: saline with Tween-80) 97 % of control.
For `C=CC1(C)CC(=O)C2(O)C(C)(O1)C(OC(C)=O)C(O)C1C(C)(C)CCC(O)C12C` (stereo unspecified), the T/C runs as follows: (endpoint: median survival time, dose: 4.0 mg/kg/injection, schedule: Q01DX005 (ip), vehicle: other) 98 % of control; (endpoint: median survival time, dose: 8.0 mg/kg/injection, schedule: Q01DX005 (ip), vehicle: other) 101 % of control; (endpoint: median survival time, dose: 16.0 mg/kg/injection, schedule: Q01DX005 (ip), vehicle: other) 93 % of control.
Turning to `O=c1c(Br)cocc1Br`, the T/C runs as follows: (endpoint: mean survival time, dose: 100.0 mg/kg/injection, schedule: Q04DX003 (ip), vehicle: saline sonified) 104 % of control; (endpoint: mean survival time, dose: 200.0 mg/kg/injection, schedule: Q04DX003 (ip), vehicle: saline sonified) 102 % of control; (endpoint: mean survival time, dose: 400.0 mg/kg/injection, schedule: Q04DX003 (ip), vehicle: saline sonified) 102 % of control.
`O=c1nc(NCc2cccs2)ccn1C1OC(CO)C(O)C1O` (stereo unspecified): the T/C is 104 % of control (endpoint: median survival time, dose: 12.5 mg/kg/injection, schedule: Q01DX005 (ip), vehicle: water); 103 % of control (endpoint: median survival time, dose: 25.0 mg/kg/injection, schedule: Q01DX005 (ip), vehicle: water); 103 % of control (endpoint: median survival time, dose: 50.0 mg/kg/injection, schedule: Q01DX005 (ip), vehicle: water); 102 % of control (endpoint: median survival time, dose: 100.0 mg/kg/injection, schedule: Q01DX005 (ip), vehicle: water); 102 % of control (endpoint: median survival time, dose: 200.0 mg/kg/injection, schedule: Q01DX005 (ip), vehicle: water).
For `[O-][n+]1ccnc2ccccc21`, the T/C is, setting by setting: (endpoint: mean survival time, dose: 100.0 mg/kg/injection, schedule: Q04DX002 (ip), vehicle: saline) 105 % of control; (endpoint: mean survival time, dose: 200.0 mg/kg/injection, schedule: Q04DX002 (ip), vehicle: saline) 116 % of control; (endpoint: mean survival time, dose: 400.0 mg/kg/injection, schedule: Q04DX002 (ip), vehicle: saline) 108 % of control.
For the molecule `O=C1NC(CN2CCOCC2)C(=O)NC1CN1CCOCC1` (stereo unspecified), the T/C reads like this: (endpoint: mean survival time, dose: 3.13 mg/kg/injection, schedule: Q01DX009 (ip), vehicle: water) 105 % of control; (endpoint: mean survival time, dose: 6.25 mg/kg/injection, schedule: Q01DX009 (ip), vehicle: water) 105 % of control; (endpoint: mean survival time, dose: 12.5 mg/kg/injection, schedule: Q01DX009 (ip), vehicle: water) 103 % of control; (endpoint: mean survival time, dose: 25.0 mg/kg/injection, schedule: Q01DX009 (ip), vehicle: water) 100 % of control; (endpoint: mean survival time, dose: 50.0 mg/kg/injection, schedule: Q01DX009 (ip), vehicle: water) 101 % of control; (endpoint: mean survival time, dose: 100.0 mg/kg/injection, schedule: Q01DX009 (ip), vehicle: water) 106 % of control.
In the case of `O=C(Nc1cccc(Cl)c1)NC1CCC(CC2CCCCC2)CC1` (stereo unspecified), the T/C is, setting by setting: under setting [1], 95 % of control; under setting [2], 95 % of control; under setting [3], 100 % of control.
As for `NCCNc1ccc(NCCN)c2c1C(=O)c1ccccc1C2=O`, the T/C is 159 % of control (endpoint: mean survival time, dose: 2.0 mg/kg/injection, schedule: Q01DX009 (ip), vehicle: acid diluted with saline); 175 % of control (endpoint: mean survival time, dose: 4.0 mg/kg/injection, schedule: Q01DX009 (ip), vehicle: acid diluted with saline); 156 % of control (endpoint: mean survival time, dose: 6.25 mg/kg/injection, schedule: Q01DX009 (ip), vehicle: distilled water + Tween-80); 345 % of control (endpoint: mean survival time, dose: 8.0 mg/kg/injection, schedule: Q01DX009 (ip), vehicle: acid diluted with saline); 227 % of control (endpoint: mean survival time, dose: 12.5 mg/kg/injection, schedule: Q01DX009 (ip), vehicle: distilled water + Tween-80); 98 % of control (endpoint: mean survival time, dose: 16.0 mg/kg/injection, schedule: Q01DX009 (ip), vehicle: acid diluted with saline). Besides, the T/C (endpoint: mean survival time, dose: 25.0 mg/kg/injection, schedule: Q01DX009 (ip), vehicle: distilled water + Tween-80) was 272 % of control.
Turning to `O=C1OC(c2ccc(Cl)cc2)=N/C1=C\c1ccccc1`, the T/C reads like this: (endpoint: mean survival time, dose: 100.0 mg/kg/injection, schedule: Q01DX009 (ip), vehicle: acetone) 97 % of control; (endpoint: mean survival time, dose: 200.0 mg/kg/injection, schedule: Q01DX009 (ip), vehicle: acetone) 101 % of control.
On to `O=C(O)C(/C=C/c1ccccc1)c1ccccc1` (stereo unspecified), for which the T/C by setting is: (endpoint: mean survival time, dose: 100.0 mg/kg/injection, schedule: Q01DX001 (ip), vehicle: saline with Tween-80) 112 % of control; under setting [4], 101 % of control; under setting [1], 92 % of control; (endpoint: mean survival time, dose: 200.0 mg/kg/injection, schedule: Q01DX001 (ip), vehicle: saline with Tween-80) 95 % of control; under setting [2], 91 % of control; (endpoint: mean survival time, dose: 400.0 mg/kg/injection, schedule: Q01DX001 (ip), vehicle: saline with Tween-80) 88 % of control. The T/C (endpoint: mean survival time, dose: 400.0 mg/kg/injection, schedule: Q01DX009 (ip), vehicle: saline with Tween-80) is 103 % of control and the T/C under setting [3] is 91 % of control.
As to `CC(C)C1=CC23CCC4C(C)(C(=O)O)CCCC4(C)C2CC13` (stereo unspecified), the T/C under setting [1] is 103 % of control, the T/C under setting [2] was 97 % of control and the T/C under setting [3] was 97 % of control.
Turning to `O=c1ccnc(SCc2ccccc2)[nH]1`, the T/C under setting [5] was 105 % of control, the T/C under setting [6] was 101 % of control and the T/C under setting [7] was 94 % of control.
Take `C=CCOC(OCC=C)C(OCC=C)OCC=C`: the T/C is, setting by setting: under setting [1], 102 % of control; under setting [2], 96 % of control; under setting [3], 96 % of control.
For the molecule `Nc1ncnc2c1[nH]c(=O)n2C1OC(CO)C(O)C1O` (stereo unspecified), the T/C is, setting by setting: under setting [5], 95 % of control; under setting [6], 107 % of control; under setting [7], 95 % of control.
Regarding `CCN(CC)Cc1cc(Nc2ncnc3scc(C)c23)ccc1O`, the T/C was 100 % of control under setting [1], 97 % of control under setting [2] and 100 % of control under setting [3].
As for `NC(CS(=O)c1ccc(Cl)cc1)C(=O)O` (stereo unspecified), the T/C under setting [8] was 90 % of control, the T/C under setting [9] is 94 % of control and the T/C under setting [10] is 96 % of control.
Consider `CCCC(C)(CC)NC(=O)OCC` (stereo unspecified), for which the T/C was 107 % of control under setting [11], 111 % of control under setting [12] and 111 % of control under setting [13].
For `Clc1ccccc1P(c1ccccc1)c1ccccc1`, the T/C reads like this: (endpoint: mean survival time, dose: 25.0 mg/kg/injection, schedule: Q04DX002 (ip), vehicle: saline with Tween-80) 100 % of control; (endpoint: mean survival time, dose: 50.0 mg/kg/injection, schedule: Q04DX002 (ip), vehicle: saline with Tween-80) 100 % of control; under setting [5], 100 % of control.
For `COc1ccc(C(=C(CC(=O)O)C(=O)O)c2ccc(OC)cc2)cc1`, the T/C reads like this: under setting [11], 98 % of control; under setting [12], 98 % of control; under setting [13], 101 % of control.
As for `Cc1cc(N(CCCOS(C)(=O)=O)CCCOS(C)(=O)=O)ccc1C=Nc1ccc2ccccc2c1`, the T/C runs as follows: under setting [10], 93 % of control; (endpoint: mean survival time, dose: 50.0 mg/kg/injection, schedule: Q01DX009 (ip), vehicle: saline with Tween-80) 93 % of control; under setting [4], 88 % of control.
In the case of `CCC(=O)OC1(c2ccccc2)CCN(C/C=C/c2ccc(F)cc2)CC1`, the T/C was 98 % of control under setting [8], 98 % of control under setting [9] and 110 % of control under setting [10].
As for `CNC(=S)SC1=NS(=O)(=O)c2ccccc2N1`, the T/C is, setting by setting: (endpoint: median survival time, dose: 25.0 mg/kg/injection, schedule: Q01DX005 (ip), vehicle: Klucel (hydroxypropylcellulose) (HPC)) 106 % of control; (endpoint: median survival time, dose: 50.0 mg/kg/injection, schedule: Q01DX005 (ip), vehicle: Klucel (hydroxypropylcellulose) (HPC)) 101 % of control; (endpoint: median survival time, dose: 100.0 mg/kg/injection, schedule: Q01DX005 (ip), vehicle: Klucel (hydroxypropylcellulose) (HPC)) 108 % of control; (endpoint: median survival time, dose: 144.0 mg/kg/injection, schedule: Q01DX005 (ip), vehicle: Klucel (hydroxypropylcellulose) (HPC)) 113 % of control; (endpoint: median survival time, dose: 200.0 mg/kg/injection, schedule: Q01DX005 (ip), vehicle: Klucel (hydroxypropylcellulose) (HPC)) 118 % of control.
